Results reported in PubChem BioAssay (NCI).
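Where inhibition never reached the appropriate level, the endpoint shown equals the highest concentration tested. Otherwise, values were interpolated linearly from a five-concentration, 48-hour dose response in 96-well plates. GI50 = concentration required for 50% inhibition of growth. At the TGI there is no net growth.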

Key:
Test in all cases: NCI anticancer screen, dose series, 48 h
786-0 renal = tested on: 786-0 renal
A498 renal = tested on: A498 renal
A549 NSCLC = tested on: A549 NSCLC
ACHN renal = tested on: ACHN renal
BT-549 breast = tested on: BT-549 breast
CAKI-1 renal = tested on: CAKI-1 renal
CCRF-CEM leukemia = tested on: CCRF-CEM leukemia
COLO 205 colon = tested on: COLO 205 colon
DU-145 prostate = tested on: DU-145 prostate
EKVX NSCLC = tested on: EKVX NSCLC
HCC-2998 colon = tested on: HCC-2998 colon
HCT-116 colon = tested on: HCT-116 colon
HCT-15 colon = tested on: HCT-15 colon
HL-60(TB) leukemia = tested on: HL-60(TB) leukemia
HOP-62 NSCLC = tested on: HOP-62 NSCLC
HOP-92 NSCLC = tested on: HOP-92 NSCLC
HS 578T breast = tested on: HS 578T breast
HT29 colon = tested on: HT29 colon
IGROV1 ovarian = tested on: IGROV1 ovarian
K-562 leukemia = tested on: K-562 leukemia
KM12 colon = tested on: KM12 colon
LOX IMVI melanoma = tested on: LOX IMVI melanoma
M14 melanoma = tested on: M14 melanoma
MALME-3M melanoma = tested on: MALME-3M melanoma
MCF7 breast = tested on: MCF7 breast
MDA-MB-231 breast = tested on: MDA-MB-231 breast
MDA-MB-435 = tested on: MDA-MB-435
MOLT-4 leukemia = tested on: MOLT-4 leukemia
NCI-H226 lung = tested on: NCI-H226 lung
NCI-H23 lung = tested on: NCI-H23 lung
NCI-H460 lung = tested on: NCI-H460 lung
NCI-H522 lung = tested on: NCI-H522 lung
NCI/ADR-RES ovarian = tested on: NCI/ADR-RES ovarian
OVCAR-3 ovarian = tested on: OVCAR-3 ovarian
OVCAR-4 ovarian = tested on: OVCAR-4 ovarian
OVCAR-5 ovarian = tested on: OVCAR-5 ovarian
OVCAR-8 ovarian = tested on: OVCAR-8 ovarian
PC-3 prostate = tested on: PC-3 prostate
RPMI-8226 leukemia = tested on: RPMI-8226 leukemia
RXF 393 renal = tested on: RXF 393 renal
SF-268 CNS = tested on: SF-268 CNS
SF-295 CNS = tested on: SF-295 CNS
SF-539 CNS = tested on: SF-539 CNS
SK-MEL-2 melanoma = tested on: SK-MEL-2 melanoma
SK-MEL-5 melanoma = tested on: SK-MEL-5 melanoma
SK-OV-3 ovarian = tested on: SK-OV-3 ovarian
SN12C renal = tested on: SN12C renal
SNB-19 CNS = tested on: SNB-19 CNS
SNB-75 CNS = tested on: SNB-75 CNS
SR leukemia = tested on: SR leukemia
SW-620 colon = tested on: SW-620 colon
T-47D breast = tested on: T-47D breast
TK-10 renal = tested on: TK-10 renal
U251 CNS = tested on: U251 CNS
UACC-257 melanoma = tested on: UACC-257 melanoma
UACC-62 melanoma = tested on: UACC-62 melanoma
UO-31 renal = tested on: UO-31 renal

CCCCCCCCn1ccc2cc(NC(=O)Cn3cc(CN4CCN(CC)CC4)nn3)ccc21
GI50 (786-0 renal): 1.61 µM
TGI (786-0 renal): 3.11 µM
GI50 (A498 renal): 2.07 µM
TGI (A498 renal): 4.97 µM
GI50 (A549 NSCLC): 1.99 µM
TGI (A549 NSCLC): 4.1 µM
GI50 (ACHN renal): 1.82 µM
TGI (ACHN renal): 3.47 µM
GI50 (BT-549 breast): 1.76 µM
TGI (BT-549 breast): 4.19 µM
GI50 (CAKI-1 renal): 1.8 µM
TGI (CAKI-1 renal): 3.43 µM
GI50 (CCRF-CEM leukemia): 3.06 µM
TGI (CCRF-CEM leukemia): 10.3 µM
GI50 (COLO 205 colon): 1.8 µM
TGI (COLO 205 colon): 3.47 µM
GI50 (DU-145 prostate): 3.4 µM
TGI (DU-145 prostate): 11.4 µM
GI50 (EKVX NSCLC): 1.81 µM
TGI (EKVX NSCLC): 4.65 µM
GI50 (HCC-2998 colon): 1.84 µM
TGI (HCC-2998 colon): 3.43 µM
GI50 (HCT-116 colon): 1.7 µM
TGI (HCT-116 colon): 3.51 µM
GI50 (HCT-15 colon): 1.78 µM
TGI (HCT-15 colon): 3.79 µM
GI50 (HL-60(TB) leukemia): 1.97 µM
TGI (HL-60(TB) leukemia): 4.14 µM
GI50 (HOP-62 NSCLC): 1.7 µM
TGI (HOP-62 NSCLC): 3.33 µM
GI50 (HOP-92 NSCLC): 1.36 µM
TGI (HOP-92 NSCLC): 2.9 µM
GI50 (HS 578T breast): 2.14 µM
TGI (HS 578T breast): 5.54 µM
GI50 (HT29 colon): 2 µM
TGI (HT29 colon): 4.39 µM
GI50 (IGROV1 ovarian): 2.17 µM
TGI (IGROV1 ovarian): 5.98 µM
GI50 (K-562 leukemia): 2.05 µM
TGI (K-562 leukemia): 4.34 µM
GI50 (KM12 colon): 2.08 µM
TGI (KM12 colon): 4.74 µM
GI50 (LOX IMVI melanoma): 1.72 µM
TGI (LOX IMVI melanoma): 3.2 µM
GI50 (M14 melanoma): 1.9 µM
TGI (M14 melanoma): 3.67 µM
GI50 (MALME-3M melanoma): 1.68 µM
TGI (MALME-3M melanoma): 3.17 µM
GI50 (MCF7 breast): 1.82 µM
TGI (MCF7 breast): 3.73 µM
GI50 (MDA-MB-231 breast): 1.75 µM
TGI (MDA-MB-231 breast): 3.38 µM
GI50 (MDA-MB-435): 1.78 µM
TGI (MDA-MB-435): 3.32 µM
GI50 (MOLT-4 leukemia): 2.58 µM
TGI (MOLT-4 leukemia): 6.68 µM
GI50 (NCI-H226 lung): 1.59 µM
TGI (NCI-H226 lung): 3.1 µM
GI50 (NCI-H23 lung): 1.96 µM
TGI (NCI-H23 lung): 4.14 µM
GI50 (NCI-H460 lung): 1.94 µM
TGI (NCI-H460 lung): 3.68 µM
GI50 (NCI-H522 lung): 1.89 µM
TGI (NCI-H522 lung): 3.84 µM
GI50 (NCI/ADR-RES ovarian): 12.2 µM
TGI (NCI/ADR-RES ovarian): 27.7 µM
GI50 (OVCAR-3 ovarian): 2.7 µM
TGI (OVCAR-3 ovarian): 8.25 µM
GI50 (OVCAR-4 ovarian): 6.46 µM
TGI (OVCAR-4 ovarian): 19.2 µM
GI50 (OVCAR-5 ovarian): 2.36 µM
TGI (OVCAR-5 ovarian): 6.39 µM
GI50 (OVCAR-8 ovarian): 2.33 µM
TGI (OVCAR-8 ovarian): 5.83 µM
GI50 (PC-3 prostate): 2.06 µM
TGI (PC-3 prostate): 5.03 µM
GI50 (RPMI-8226 leukemia): 2.28 µM
TGI (RPMI-8226 leukemia): 5.39 µM
GI50 (RXF 393 renal): 1.48 µM
TGI (RXF 393 renal): 3.04 µM
GI50 (SF-268 CNS): 1.9 µM
TGI (SF-268 CNS): 4.01 µM
GI50 (SF-295 CNS): 1.87 µM
TGI (SF-295 CNS): 3.7 µM
GI50 (SF-539 CNS): 1.68 µM
TGI (SF-539 CNS): 3.17 µM
GI50 (SK-MEL-2 melanoma): 2.01 µM
TGI (SK-MEL-2 melanoma): 3.89 µM
GI50 (SK-MEL-5 melanoma): 1.75 µM
TGI (SK-MEL-5 melanoma): 3.14 µM
GI50 (SK-OV-3 ovarian): 1.78 µM
TGI (SK-OV-3 ovarian): 3.49 µM
GI50 (SN12C renal): 1.82 µM
TGI (SN12C renal): 3.76 µM
GI50 (SNB-19 CNS): 1.9 µM
TGI (SNB-19 CNS): 3.77 µM
GI50 (SNB-75 CNS): 1.52 µM
TGI (SNB-75 CNS): 2.98 µM
GI50 (SR leukemia): 3.35 µM
TGI (SR leukemia): 11.8 µM
GI50 (SW-620 colon): 1.9 µM
TGI (SW-620 colon): 3.62 µM
GI50 (T-47D breast): 1.81 µM
TGI (T-47D breast): 3.56 µM
GI50 (TK-10 renal): 1.77 µM
TGI (TK-10 renal): 3.36 µM
GI50 (U251 CNS): 1.77 µM
TGI (U251 CNS): 3.26 µM
GI50 (UACC-257 melanoma): 1.83 µM
TGI (UACC-257 melanoma): 3.65 µM
GI50 (UACC-62 melanoma): 1.91 µM
TGI (UACC-62 melanoma): 3.5 µM
GI50 (UO-31 renal): 1.46 µM
TGI (UO-31 renal): 2.79 µM
